Patent US8993542B2, “Methods of treating viral infections” (priority 2008, dated 2015)
Read-outs that look alike come from different tables or passages of the source.

Assays:
[1] = system: HIV; assay: microbe, parasite or virus in culture; assay type: cell-based
[2] = Toxicokinetics and 7-day toxicity after oral administration of CMX157 to rats; assay type: in vivo; conditions: for AUC0-24 / Cmax / Tmax / AUC(0-t) / AUC0-∞ / t1/2elim: rat plasma; for AUC(0-t): read-out: AUC0-24
[3] = system: HIV-1IIIB; assay: TCID50 determination of drug-treated HIV-1IIIB; assay type: cell-based; set-up: TCID50, XTT Endpoint / TCID50, RT Endpoint / TCID50, P24 Endpoint: unit not given here; conditions: 500 nM

With `CCCCCCCCCCCCCCCCOCCCOP(=O)(O)CO[C@H](C)Cn1cnc2c(N)ncnc21` [CMX157, Hexadecyloxypropyl-9-R-[2-(Phosphonomethoxy)Propyl]-Adenine] the IC50 ([1]; Human immunodeficiency virus 1, PANEL 1, WT) was 1.72 nM, the IC50 ([1]; Human immunodeficiency virus 1, PANEL 2, WT) was 1.61 nM and the IC50 ([1]; Human immunodeficiency virus 1, PANEL 3, 6 TAMs, no 184) was 8.5 nM. It also gave an IC50 ([1]; Human immunodeficiency virus 1, PANEL 6, 6 TAMs + 184) of 5.21 nM, an IC50 ([1]; Human immunodeficiency virus 1, PANEL 7, 184V) of 1.36 nM and an IC50 ([1]; Human immunodeficiency virus 1, PANEL 9, 69ins, no 184) of 57.4 nM. It also gave an IC50 ([1]; Human immunodeficiency virus 1, PANEL 12, 69ins + 184) of 11.2 nM, an IC50 ([1]; Human immunodeficiency virus 1, PANEL 14, 65R, no 184) of 3.6 nM and an IC50 ([1]; Human immunodeficiency virus 1, PANEL 15, 65R + 184V) of 2.71 nM. The IC50 ([1]; Human immunodeficiency virus 1, PANEL 17, L74V) was 1.23 nM, the IC50 ([1]; Human immunodeficiency virus 1, PANEL 19, L74V + M184V) was 0.66 nM and the IC50 ([1]; Human immunodeficiency virus 1, PANEL 26, 151M, no 184) was 3.68 nM. The IC50 ([1]; Human immunodeficiency virus 1, PANEL 28, 151M + 184) was 3.05 nM, the IC50 ([1]; Human immunodeficiency virus 1, PANEL 29, L74V − SDM) was 1.48 nM and the IC50 ([1]; Human immunodeficiency virus 1, PANEL 30, M184V − SDM) was 1.15 nM. The IC50 ([1]; Human immunodeficiency virus 1, PANEL 31, K65R − SDM) was 4.73 nM, the IC50 ([1]; Human immunodeficiency virus 1, PANEL 33, T215Y) was 5 nM and the IC50 ([1]; Human immunodeficiency virus 1, PANEL 34, T215Y + M184V) was 1.67 nM. It also gave an IC50 ([1]; Human immunodeficiency virus 1, PANEL 35, M41L + T215Y) of 3.91 nM, an IC50 ([1]; Human immunodeficiency virus 1, PANEL 37, M41L + T215Y + M184V) of 2.88 nM and an IC50 ([1]; Human immunodeficiency virus 1, PANEL 38, M41L + L210W + T215Y) of 5.96 nM. It also gave an IC50 ([1]; Human immunodeficiency virus 1, PANEL 39, M41L + L210W + T215Y) of 6.56 nM, an IC50 ([1]; Human immunodeficiency virus 1, PANEL 40, M41L + L210W + T215Y + M184V) of 1.89 nM and an IC50 ([1]; Human immunodeficiency virus 1, PANEL 41, M41L + L210W + T215Y + M184V) of 2.5 nM. For the same compound, the IC50 ([1]; Human immunodeficiency virus 1, PANEL 42, D67N + K70R) was 5.61 nM, the IC50 ([1]; Human immunodeficiency virus 1, PANEL 44, D67N + K70R + T215F + K219E + M184V) was 1.92 nM and the IC50 ([1]; Human immunodeficiency virus 1, PANEL 45, L210W + T215Y) was 2.79 nM. It also gave an IC50 ([1]; Human immunodeficiency virus 1, PANEL 46, D67N + K70E) of 2.12 nM, an IC50 ([1]; Human immunodeficiency virus 1, PANEL 47, D67N + K70E + M184V) of 1.45 nM and an IC50 ([1]; Human immunodeficiency virus 1, PANEL 48, K70E + M184V) of 1.32 nM. The IC50 ([1]; Human immunodeficiency virus 1, read-out: IC50s against NRTI resistant HIV, range over panel) was 1.2 to 57 nM, the AUC0-24 ([2]; oral CMX157 10 mg/kg, day 1) was 441.7 ng·h/mL and the Cmax ([2]; oral CMX157 10 mg/kg, day 1) was 84.85 ng/mL. It also gave a Tmax ([2]; oral CMX157 10 mg/kg, day 1) of 0.5 h, a Cmax ([2]; oral CMX157 10 mg/kg, day 7) of 110.90 ng/mL and a Tmax ([2]; oral CMX157 10 mg/kg, day 7) of 0.5 h. The AUC(0-t) ([2]; oral CMX157 10 mg/kg, day 7) was 435 ng·h/mL, the AUC0-24 ([2]; oral CMX157 30 mg/kg, day 1) was 1,832.8 ng · h/ml and the Cmax ([2]; oral CMX157 30 mg/kg, day 1) was 379.00 ng/mL. It also gave a Tmax ([2]; oral CMX157 30 mg/kg, day 1) of 2.0 h, a Cmax ([2]; oral CMX157 30 mg/kg, day 7) of 202.50 ng/mL and a Tmax ([2]; oral CMX157 30 mg/kg, day 7) of 1.0 h. For the same compound, the AUC(0-t) ([2]; oral CMX157 30 mg/kg, day 7) was 1540 ng·h/mL, the AUC0-24 ([2]; oral CMX157 100 mg/kg, day 1) was 5,408 ng · h/ml and the “AUC0-∞” value ([2]; oral CMX157 100 mg/kg, day 1) was 5,429.8 ng · h/ml. It also gave a Cmax ([2]; oral CMX157 100 mg/kg, day 1) of 905.00 ng/mL, a Tmax ([2]; oral CMX157 100 mg/kg, day 1) of 2.0 h and a t1/2elim ([2]; oral CMX157 100 mg/kg, day 1) of 2.5 h. For the same compound, the “AUC0-∞” value ([2]; oral CMX157 100 mg/kg, day 7) was 8,050.6 ng · h/ml, the Cmax ([2]; oral CMX157 100 mg/kg, day 7) was 685.50 ng/mL and the Tmax ([2]; oral CMX157 100 mg/kg, day 7) was 2.0 h. The t1/2elim ([2]; oral CMX157 100 mg/kg, day 7) was 1.6 h, the AUC(0-t) ([2]; oral CMX157 100 mg/kg, day 7) was 8050 ng·h/mL and the no-observed-adverse-effect level ([2]; rats, 7 days, highest dose tested) was “up to 100 mg/kg/day”. For the same compound, the “Fold Decrease From VC, P24 Endpoint” value ([3]; compound removal at 1 minute) was “(8.0) Fold”, the “Fold Decrease From VC, RT Endpoint” value ([3]; compound removal at 1 minute) was “(5.2) Fold” and the “Fold Decrease From VC, XTT Endpoint” value ([3]; compound removal at 1 minute) was “(2.2) Fold”. The “TCID50, P24 Endpoint” value ([3]; compound removal at 1 minute) was 4529, the “TCID50, RT Endpoint” value ([3]; compound removal at 1 minute) was 25588 and the “TCID50, XTT Endpoint” value ([3]; compound removal at 1 minute) was 2014. The “Fold Decrease From VC, P24 Endpoint” value ([3]; compound removal at 15 minutes) was “(5.7) Fold”, the “Fold Decrease From VC, RT Endpoint” value ([3]; compound removal at 15 minutes) was “(3.6) Fold” and the “Fold Decrease From VC, XTT Endpoint” value ([3]; compound removal at 15 minutes) was “(4.0) Fold”. The “TCID50, P24 Endpoint” value ([3]; compound removal at 15 minutes) was 6398, the “TCID50, RT Endpoint” value ([3]; compound removal at 15 minutes) was 18115 and the “TCID50, XTT Endpoint” value ([3]; compound removal at 15 minutes) was 1132. For the same compound, the “Fold Decrease From VC, P24 Endpoint” value ([3]; compound removal at 30 minutes) was “(2.0) Fold”, the “Fold Decrease From VC, RT Endpoint” value ([3]; compound removal at 30 minutes) was “(2.8) Fold” and the “Fold Decrease From VC, XTT Endpoint” value ([3]; compound removal at 30 minutes) was “(2.0) Fold”. For the same compound, the “TCID50, P24 Endpoint” value ([3]; compound removal at 30 minutes) was 18115, the “TCID50, RT Endpoint” value ([3]; compound removal at 30 minutes) was 22805 and the “TCID50, XTT Endpoint” value ([3]; compound removal at 30 minutes) was 2014. The “Fold Decrease From VC, P24 Endpoint” value ([3]; compound removal at 60 minutes) was “(4.0) Fold”, the “Fold Decrease From VC, RT Endpoint” value ([3]; compound removal at 60 minutes) was “(3.4) Fold” and the “Fold Decrease From VC, XTT Endpoint” value ([3]; compound removal at 60 minutes) was “(2.5) Fold”. The “TCID50, P24 Endpoint” value ([3]; compound removal at 60 minutes) was 9058, the “TCID50, RT Endpoint” value ([3]; compound removal at 60 minutes) was 25588 and the “TCID50, XTT Endpoint” value ([3]; compound removal at 60 minutes) was 1600. The “Fold Decrease From VC, P24 Endpoint” value ([3]; compound removal at 120 minute) was “(5.7) Fold”.
